The values below are quoted from earlier work in patent US20020177585A1, “Uses of targeted oxidative therapeutic formulation in arteriosclerosis” (priority 2001, published 2002).

The subject of one data set is E. coli. The following applies: increasing concentration of peroxide ex-vivo.
Data set [1] deals with peroxide-sensitive E. coli. The conditions noted are these: infused into the blood of infected rabbits.

In the case of `OO` [hydrogen peroxide, Hydrogen peroxide], the direct bactericidal activity result with E. coli is reported as “no evidence of direct bactericidal activity”. For the same molecule, the bactericidal effect entry in data set [1] is listed as “no bactericidal effect”.
